Values quoted from earlier work as cited in patent US20240000880A1, “A PHARMACEUTICAL COMPOSITION FOR PREVENTING AND TREATING LUNG INJURY, A PREPARATION METHOD THEREFOR AND A USE THEREOF” (priority 2020, published 2024).

System: rats with chronic obstructive pulmonary disease
Settings: rats with COPD; previous studies

Oc1ccc(C=Cc2cc(O)cc(O)c2)cc1 [resveratrol]
antioxidant efficacy on chronic obstructive pulmonary disease: has antioxidant efficacy | lung function: can improve lung function to some extent
